The test addresses T1, CSBP/p38 (Homo sapiens, UniProt Q16539).
T1 construct: made in house; host or cells: yeast
As to the kind of experiment: CSBP/p38 Kinase Assay. The class given is biochemical. The note with it: 32P transfer from ATP to EGFR-derived peptide T669; yeast-expressed, activated p38; 0.17 mM ATP; "this binding assay or a similar assay"; read-out: IC50 (positive inhibitory activity). As for the experimental part:
This assay measures the CSBP/p38-catalyzed transfer of ^32p from [a−^32P]ATP to threonine residue in an epidermal growth factor receptor (EGFR)-derived peptide (T669) with the following sequence: […] (residues 661-681). (See Gallagher et al., “Regulation of Stress Induced Cytokine Production by Pyridinyl Imidazoles: Inhibition of CSBP Kinase”, BioOrganic & Medicinal Chemistry, 1997, 5, 49-64).
Reactions were carried in round bottom 96 well plate (from Coming) in a […] volume. Reactions contained (in final concentration): 25 mM Hepes, pH 7.5; 8 mM MgCl2; 0.17 mM ATP (the Km[ATP] of p38 (see Lee et al., Nature 300, n72 pg. 639-746 (December 1994)); 2.5 uCi of [g-32P]ATP; 0.2 mM sodium orthovanadate; 1 mM DTT; 0.1% BSA; 10% glycerol; 0.67 mM T669 peptide; and 24 nM of yeast-expressed, activated and purified p38. Reactions were initiated by the addition of [gamma-32P]Mg/ATP, and incubated for 25 min. at 37° C. Inhibitors (dissolved in DMSO) were incubated with the reaction mixture on ice for 30 minutes prior to adding the 32P-ATP. Final DMSO concentration was 0.16%. Reactions were terminated by adding 10 ul of 0.3 M phosphoric acid, and phosphorylated peptide was isolated from the reactions by capturing it on p81 phosphocellulose filters. Filters were washed with 75 mM phosphoric acids, and incorporated 32P was quantified using beta scintillation counter. […]

As usually defined, the IC50 is the point on the concentration scale where inhibition reaches its midpoint.

T1 sequence (Q16539 whole entry): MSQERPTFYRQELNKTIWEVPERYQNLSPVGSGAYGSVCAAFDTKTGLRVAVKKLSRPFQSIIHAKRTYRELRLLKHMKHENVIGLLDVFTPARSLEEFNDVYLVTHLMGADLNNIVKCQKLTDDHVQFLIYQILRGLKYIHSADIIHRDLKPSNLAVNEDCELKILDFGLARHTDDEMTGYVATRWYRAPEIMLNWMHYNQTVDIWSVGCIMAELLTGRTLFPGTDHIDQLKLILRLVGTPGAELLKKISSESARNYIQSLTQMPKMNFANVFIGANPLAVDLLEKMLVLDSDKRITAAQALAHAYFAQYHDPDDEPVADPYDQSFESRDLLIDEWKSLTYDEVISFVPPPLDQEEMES

For `O=C1NCc2cc(Nc3ccccc3)ccc2N1c1ccccc1` [Example 1, 1-Phenyl-2-oxo-3.4-dihydro-6-phenylaminoquinazoline], the IC50 was below 50 µM.

The values are drawn from patent US6982270B1, “3,4-dihydro-(1H)quinazolin-2-one compounds as CSBP/p38 kinase inhibitors” (SmithKline Beecham Corporation, priority 1999, dated 2006).
